Measured values: patent US12384769B2, “Heteroaryl-substituted aminoalkyl azole compounds as pesticides” (Elanco Animal Health GmbH, priority 2019, dated 2025)

Columns and labels:
Format in all cases: in vivo
[1] = test system: Ctenocephalides felis; assay: Ctenocephalides felis in-vitro contact test, adult cat flea; conditions: 5 μg/cm^2 (=500 g/ha), after 48 hours, read-out: activity (efficacy, fleas dead or moribund)
Procedure: Ctenocephalides felis—in-Vitro Contact Tests Adult Cat Flea
(§1) 9 mg compound is solved in 1 ml acetone and diluted with acetone to the desired concentration. 250 of the test solution is filled in 25 ml glass test tubes and homogeneously distributed on the inner walls by rotation and tilting on a shaking device (2 h at 30 rpm). With a compound concentration of 900 ppm, an inner surface of 44.7 cm^2 and a homogeneous distribution, a dose of 5 μg/cm^2 is achieved.
(§2) After the solvent has evaporated, each test tube is filled with 5-10 adult cat fleas (Ctenocephalides felis), closed with a perforated lid and incubated in a lying position at room temperature and relative humidity. After 48 hours efficacy is determined. The fleas are patted on the ground of the tubes and are incubated on a heating plate at 45-50° C. for at most 5 minutes Immotile or uncoordinated moving fleas, which are not able to escape the heat by climbing upwards, are marked as dead or moribund.
An efficacy of 100% means all fleas are dead or moribund; 0% means no fleas are dead or moribund.

[2] = test system: Spodoptera frugiperda; assay: Spodoptera frugiperda spray test; conditions: in Zea mays, 168 h, read-out: activity (mortality)
Outline: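 Compound in acetone/DMF, diluted in water with 1000 ppm alkylarylpolyglycol ether emulsifier, sprayed on maize leaf sections. Dried leaves infested with fall armyworm larvae; % mortality after 7 days (100% = all killed, 0% = none).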

[3] = test system: Myzus persicae; assay: Myzus persicae oral test; conditions: 120 h, after 5 days
Procedure: Solvent: 100 parts by weight acetone
Afterwards the plates are sealed with parafilm through which a mixed population of the green peach aphid (Myzus persicae) can suck on the compound preparation.
After 5 days mortality in % is determined. 100% means all aphids have been killed and 0% means none of the aphids have been killed.

[4] = test system: Rhipicephalus microplus (strain Parkhurst, resistant against synthetic pyrethroids); assay: Rhipicephalus microplus in-vitro contact test, larval cattle tick (BOOPMI Contact); conditions: 5 μg/cm^2 (=500 g/ha), after 48 hours, read-out: activity (efficacy, larvae dead or moribund)
Outline: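 Glass tubes coated with compound in acetone (900 ppm giving 5 μg/cm²), dried, then loaded with 20-50 pyrethroid-resistant Parkhurst larvae and held at 27 °C, 85% RH. After 48 h negative geotaxis is scored; efficacy in % dead or moribund larvae.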

[5] = test system: Rhipicephalus sanguineus; assay: Rhipicephalus sanguineus in-vitro contact test, adult brown dog ticks (RHIPSA Contact); conditions: 5 μg/cm^2 (=500 g/ha), after 48 hours, read-out: activity (efficacy, ticks dead or moribund)
Procedure: Rhipicephalus sanguineus—in-Vitro Contact Tests with Adult Brown Dog Ticks (RHIPSA Contact)
as §1, with “250 μl_,” for “250”
as §2, with “brown dog ticks (Rhipicephalus sanguineus),” for “cat fleas (Ctenocephalides felis),”, “ticks” for “fleas”, “ticks,” for “fleas,”
An efficacy of 100% means all ticks are dead or moribund; 0% means no ticks are dead or moribund.

[6] = test system: Diabrotica balteata; assay: Diabrotica balteata spray test; conditions: 168 h, wheat seeds, after 7 days, read-out: activity (efficacy, seedlings grown); for pest or weed control at 160 µg/disc, 500 g/ha: 500 g/ha (=160 μg/well)
Outline: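 Germinated wheat seedlings (5 per well, on agar) sprayed with compound in acetone/DMF with emulsifier-containing water, then infested with 10–20 Diabrotica balteata larvae. Efficacy (%) scored after 7 days from seedling growth: 100% = growth as untreated uninfested control, 0% = no seedlings grown.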

[7] = test system: Boophilus microplus; assay: Boophilus microplus injection test (BOOPMI Injection); conditions: Rhipicephalus microplus, 168 h, injection into adult engorged female ticks, egg deposition after 7 days, read-out: activity (efficacy, infertile eggs); for pest or weed control at 0.004 mg: 4 μg/animal; for pest or weed control at 0.02 mg: 20 μg/animal
Outline: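 Adult engorged female ticks (5 per group) injected into the abdomen with 1 μL compound in DMSO, then held in a climate chamber. Fertile egg deposition scored after 7 days, with unclear eggs kept until hatching (~42 days). Efficacy 100% = all eggs infertile, 0% = all fertile.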

[8] = test system: Ctenocephalides felis; assay: Ctenocephalides felis oral test (CTECFE); conditions: 48 h, 100 ppm in cattle blood, after 2 days
Outline: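 About 20 adult unfed fleas fed through parafilm on cattle blood held at 37° C and dosed with compound from a DMSO concentrate; flea chamber at room temperature. Percent mortality scored after 2 days.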

[9] = test system: Aedes aegypti strain MONHEIM; assay: Aedes aegypti test (AEDSAE surface treatment & contact assay); conditions: surface concentration 4 mg/m^2, glazed tile, 30 minutes exposure, 24 hours after contact, read-out: efficacy (mortality)
Procedure: Aedes aegypti Test (AEDSAE Surface Treatment & Contact Assay)
Solvent: Aceton+2000 ppm rapeseed oil methyl ester (RME)
In order to produce a sufficient, active ingredient containing solution it is necessary to solve the test compound in the solvent-mix (acetone at 2 mg/mL/RME 2000 ppm). This solution is pipetted onto a glazed tile and after evaporation of the acetone, adult mosquitoes of the species Aedes aegypti strain MONHEIM are placed onto the dried surface. The exposure time is 30 minutes.
Mortality in percent (%) is determined 24 hours after contact of the insects to the treated surface. 100% mortality means that all tested insects are dead, whereas 0% means that no insect died.

Row | Compound | pest or weed control at 5 µg/cm2, 5 µg/cm2 [1] [%] | mortality at 100 g/ha [2] [%] | mortality at 4 ppm [3] [%] | pest or weed control at 5 µg/cm2 [4] [%] | pest or weed control at 5 µg/cm2, 5 µg/cm2 [5] [%] | pest or weed control at 100 g/ha [6] [%] | mortality at 500 g/ha [2] [%] | pest or weed control at 0.004 mg [7] [%] | pest or weed control at 0.02 mg [7] [%] | mortality at 100 ppm [8] [%] | pest or weed control at 160 µg/disc, 500 g/ha [6] [%] | mortality at 4 mg/m2 [9] [%]
1 | C[C@H](Nc1nc2cc(OC(F)(F)F)c(Cl)cc2o1)c1ncnn1-c1ncccn1 [Example I-082, 6-Chlor-N-{(1S)-1-[1-(pyrimidin-2-yl)-1H-1,2,4-triazol-5-yl]ethyl}-5-(trifluormethoxy)-1,3-benzoxazol-2-amin] | 100 | 100 | 100 | 100 | 100 | 100 |  |  |  |  |  | 
2 | Cc1nc([C@H](C)Nc2nc3cc(C(F)(F)F)c(Cl)cc3o2)n(-c2ncccn2)n1 [Example I-011] |  |  | 90 | 80 | 80 | 100 | 100 | 100 | 100 | 100 | 100 | 
3 | Cc1cnc(-n2ncnc2[C@H](C)Nc2nc3cc(C(F)(F)F)c(Cl)cc3o2)nc1 [Example I-060, 6-Chlor-N-{(1S)-1-[1-(5-methylpyrimidin-2-yl)-1H-1,2,4-triazol-5-yl]ethyl}-5-(trifluormethyl)-1,3-benzoxazol-2-amin] | 100 | 83 | 90 | 100 | 80 | 100 |  |  |  |  |  | 
4 | C[C@H](Nc1nc2cc(C(F)(F)F)cc(Cl)c2o1)c1ncnn1-c1ncc(F)cn1 [Example I-045, 7-Chlor-N-{(1S)-1-[1-(5-fluorpyrimidin-2-yl)-1H-1,2,4-triazol-5-yl]ethyl}-5-(trifluormethyl)-1,3-benzoxazol-2-amin] | 100 | 100 |  | 80 | 100 | 100 | 100 | 100 | 100 | 100 | 100 | 
5 | Cc1nc([C@H](C)Nc2nc3cc(Cl)cc(C(F)(F)F)c3o2)n(-c2ccc(C(F)(F)F)cn2)n1 [Example I-086, 5-Chlor-N-[(1S)-1-{3-methyl-1-[5-(trifluormethyl)pyridin-2-yl]-1H-1,2,4-triazol-5-yl}ethyl]-7-(trifluormethyl)-1,3-benzoxazol-2-amin] |  |  | 90 | 90 |  |  |  |  |  |  |  | 
6 | C[C@H](Nc1nc2cc(C(F)(F)F)cc(Cl)c2o1)c1ncnn1-c1ncccn1 [Example I-006] | 100 | 100 | 90 | 100 |  |  | 100 | 100 | 100 | 100 | 100 | 85 to 100
7 | C[C@H](Nc1nc2cc(C(F)(F)F)c(Cl)cc2o1)c1nc(C2CC2)nn1-c1ccc(C#N)cn1 [Example I-100, 6-{5-[(1S)-1-{[6-chloro-5-(trifluoromethyl)-1,3-benzoxazol-2-yl]amino}ethyl]-3-cyclopropyl-1H-1,2,4-triazol-1-yl}pyridine-3-carbonitrile] |  | 100 | 90 |  |  | 100 |  |  |  |  |  | 
